Reference: article PMC11676189, “Improving the Anti-Tumor Effect of Indoleamine 2,3-Dioxygenase Inhibitor CY1-4 by CY1-4 Nano-Skeleton Drug Delivery System” (Journal of Functional Biomaterials, 2024)
≈ marks a conversion by molar mass, not a printed value. Blank lines part the entries; values can stand above or below the compound they belong to.

Tests used:
[1] = In vitro dissolution of CY1-4 in artificial gastric fluid (pH 1.2) and artificial intestinal fluid (pH 6.8); type: physicochemical
Description: MSNM@CY1-4 (equivalent to 3 mg of CY1-4) was dispersed in 600 mL artificial gastric fluid (pH 1.2 containing 0.1% (v/v) Tween-80) or 600 mL artificial intestinal fluid (pH 6.8 containing 0.1% (v/v) Tween-80) at 37 °C and 100 rpm. Samples were taken at 0, 2, 5, 12, 20, 40, and 60 min. Each sample was filtered through a 0.22 μm filter membrane and determined by HPLC.

[2] = Solubility of CY1-4 (excess sample shaken in a 37 °C water bath for 48 h, HPLC); type: physicochemical; details: thermodynamic from solid
Description: The excess MSNM@CY1-4 was placed in deionized water and was shaken in a 37 °C water bath for 48 h. The supernatant was filtered after centrifugation at 10,000 rpm, and the filtrate was collected. The CY1-4 was measured using HPLC to calculate the solubility of CY1-4.

[3] = set-up: method as in PMID 28053021; details: cited from earlier work
[4] = tested on: unresectable metastatic melanoma; details: combined with Keytruda vs Keytruda alone; phase III, 2018; cited from earlier work
[5] = tested on: recurrent malignant glioma; set-up: method as in PMID 32436060; details: up to 500 mg BID; patients with recurrent malignant glioma; cited from earlier work

CY1-4 dissolved ([1]; artificial gastric fluid pH 1.2, 5 min): about 6%
CY1-4 dissolved after the 5 min maximum (decreased to) ([1]; artificial gastric fluid pH 1.2, after 5 min): about 1%
CY1-4 dissolved ([1]; artificial intestinal fluid pH 6.8, 5 min): about 4%
CY1-4 dissolved after the 5 min maximum (decreased to) ([1]; artificial intestinal fluid pH 6.8, after 5 min): about 1%
solubility at 48 h ([2]; deionized water, water): < 100 µg/mL
solubility at 48 h ([2]; deionized water, water, 48 h): 1.16 ± 0.08 µg/mL (≈ 3.94 µM)
solubility at 48 h ([2]; pH 1.2 medium, pH 1.2, simulated gastric fluid, pH = 1.2): 1.36 ± 0.04 µg/mL (≈ 4.62 µM)
solubility at 48 h ([2]; pH 6.8 medium, pH 6.8, aqueous buffer, pH = 6.8): 1.19 ± 0.09 µg/mL (≈ 4.04 µM)
SMILES: O=C1c2cc([N+](=O)[O-])ccc2-n2c1nc1ncccc1c2=O [CY1-4, 9-nitropyridine [2′,3′:4,5] pyrimido [1,2-α] indole-5,11-dione]

SMILES: NS(=O)(=O)NCCNc1nonc1C(=NO)Nc1ccc(F)c(Br)c1 [Epacadostat]
Tolerability [3]: well tolerated
Inhibition of IDO1 activity ([3]; dose of ≥100 mg BID): could effectively inhibit the activity of IDO1
Progression-free survival [4]: failed to significantly improve the progression-free survival

SMILES: O=C1CC(c2c[nH]c3ccc(F)cc23)C(=O)N1 (stereo not drawn) [PF-06840003]
Tolerability [5]: generally well tolerated
